# Legend:
# RPMI-8226 (Leukemia) = experiment: NCI-60 screen (SRB, 48 h); details: Homo sapiens; for GI50: RPMI-8226; for IC (TGI): RPMI-8226, 48 h, read-out: TGI; for CC50: RPMI-8226, read-out: LC50
# SR (Leukemia) = experiment: NCI-60 screen (SRB, 48 h); assay type: cell-based
# [1] = test system: NCI-H460 (NSC lung cancer); experiment: NCI-60 screen (SRB, 48 h); details: for GI50 / IC (TGI) / CC50: Homo sapiens; for GI50: NCI-H460; for IC (TGI): NCI-H460, 48 h, read-out: TGI; for CC50: NCI-H460, read-out: LC50
# MDA-MB-435 (Melanoma) = experiment: NCI-60 screen (SRB, 48 h); assay type: cell-based; details: for GI50 / IC (TGI) / CC50: Homo sapiens; for GI50 / CC50: MDA-MB-435; for IC (TGI): MDA-MB-435, 48 h, read-out: TGI; for CC50: read-out: LC50 (the source's name)
# UACC-257 (Melanoma) = experiment: NCI-60 screen (SRB, 48 h); details: Homo sapiens; for GI50: UACC-257; for IC (TGI): UACC-257, 48 h, read-out: TGI; for CC50: UACC-257, read-out: LC50
# SK-MEL-5 (Melanoma) = experiment: NCI-60 screen (SRB, 48 h); details: Homo sapiens; for GI50: SK-MEL-5; for IC (TGI): SK-MEL-5, 48 h, read-out: TGI; for CC50: SK-MEL-5, read-out: LC50
# HCC-2998 (Colon cancer) = experiment: NCI-60 screen (SRB, 48 h); details: Homo sapiens; for GI50: HCC 2998; for IC (TGI): HCC 2998, 48 h, read-out: TGI; for CC50: HCC 2998, read-out: LC50
# [2] = test system: FaDu (hypopharyngeal carcinoma); experiment: SRB cytotoxicity assay, 72 h; assay type: cell-based, human; details: Homo sapiens, cut-off 30 µM, read-out: EC50
# Method in brief: (§1)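 Cells seeded, treated 24 h later with serial dilutions (0–30 µM; DMSO ≤0.5%) for 72 h. TCA-fixed, SRB-stained, absorbance read at 570 nm; survival relative to untreated controls gives EC50.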
# [3] = test system: A375 (malignant melanoma); experiment: SRB cytotoxicity assay, 72 h; assay type: cell-based, human; details: Homo sapiens, A-375, 72 h, A375, 72 h, cut-off 30 µM; read-out: EC50
# Method in brief: as §1
# [4] = test system: A2780 (ovarian carcinoma); experiment: SRB cytotoxicity assay, 72 h; assay type: cell-based, human; details: Homo sapiens; A2780, 72 h, cut-off 30 µM; read-out: EC50
# Method in brief: as §1
# MCF-7 (breast carcinoma) = experiment: SRB cytotoxicity assay, 72 h; assay type: cell-based, human; details: Homo sapiens, MCF7; MCF-7, 72 h, cut-off 30 µM; read-out: EC50
# Method in brief: as §1
# [5] = test system: HT29 (colorectal carcinoma); experiment: SRB cytotoxicity assay, 72 h; assay type: cell-based, human; details: Homo sapiens, HT-29; HT29, 72 h, cut-off 30 µM; read-out: EC50
# Method in brief: as §1
# SF-539 (CNS cancer) = experiment: NCI-60 screen (SRB, 48 h); details: Homo sapiens; for GI50: SF-539; for IC (TGI): SF-539, 48 h, read-out: TGI; for CC50: SF-539, read-out: LC50
# Melanoma subpanel = experiment: NCI-60 screen, subpanel; details: Homo sapiens; for IC (TGI): 48 h, read-out: TGI MG_MID; for GI50: read-out: GI50 MG_MID; for CC50: read-out: LC50 MG_MID
# NSC lung cancer subpanel = experiment: NCI-60 screen, subpanel; details: Homo sapiens; for IC (TGI): 48 h, read-out: TGI MG_MID; for GI50: read-out: GI50 MG_MID; for CC50: read-out: LC50 MG_MID
# [6] = test system: NCI-H522 (NSC lung cancer); experiment: NCI-60 screen (SRB, 48 h); details: Homo sapiens; for GI50: NCI-H522; for IC (TGI): NCI-H522, 48 h, read-out: TGI; for CC50: NCI-H522, read-out: LC50
# SF-268 (CNS cancer) = experiment: NCI-60 screen (SRB, 48 h); details: Homo sapiens; for GI50: SF-268; for IC (TGI): SF-268, 48 h, read-out: TGI; for CC50: SF-268, read-out: LC50
# [7] = test system: MDA-MB-468 (Breast cancer); experiment: cells; details: Homo sapiens; for GI50: MDA-MB-468; for IC (TGI): MDA-MB-468, 48 h, read-out: TGI; for CC50: MDA-MB-468, read-out: LC50
# BT-549 (Breast cancer) = experiment: NCI-60 screen (SRB, 48 h); assay type: cell-based; details: Homo sapiens; for IC (TGI): BT-549, 48 h
# OVCAR-4 (Ovarian cancer) = experiment: NCI-60 screen (SRB, 48 h); assay type: cell-based; details: Homo sapiens; for IC (TGI): OVCAR-4, 48 h; for GI50: read-out: GI50
# OVCAR-8 (Ovarian cancer) = experiment: NCI-60 screen (SRB, 48 h); details: Homo sapiens; for GI50: OVCAR-8; for IC (TGI): OVCAR-8, 48 h, read-out: TGI; for CC50: OVCAR-8, read-out: LC50
# 786-0 (Renal cancer) = experiment: NCI-60 screen (SRB, 48 h); details: Homo sapiens; for GI50: 786-0; for IC (TGI): 786-0, 48 h, read-out: TGI; for CC50: 786-0, read-out: LC50
# Breast cancer subpanel = experiment: NCI-60 screen, subpanel; details: Homo sapiens; for IC (TGI): 48 h, read-out: TGI MG_MID; for GI50: read-out: GI50 MG_MID; for CC50: read-out: LC50 MG_MID
# ACHN (Renal cancer) = experiment: NCI-60 screen (SRB, 48 h); details: for GI50 / IC (TGI) / CC50: Homo sapiens; for IC (TGI): 48 h, read-out: TGI; for CC50: read-out: LC50
# [8] = test system: NCI-H23 (NSC lung cancer); experiment: NCI-60 screen (SRB, 48 h); details: Homo sapiens; for GI50: NCI-H23; for IC (TGI): NCI-H23, 48 h, read-out: TGI; for CC50: NCI-H23, read-out: LC50
smiles,measurement,setting,value
"C[C@H]1[C@H](C)CC[C@]2(CO)CC[C@]3(C)C(=CC[C@@H]4[C@@]5(C)CCCNC(C)(C)[C@@H]5CC[C@]43C)[C@H]12 [Compound 4, azepanouvaol]",GI50,RPMI-8226 (Leukemia),1.85 µM
same,IC (TGI),RPMI-8226 (Leukemia),4.15 µM
same,CC50,RPMI-8226 (Leukemia),9.27 µM
same,TGI,SR (Leukemia),3.13 µM
same,GI50,SR (Leukemia); Homo sapiens,1.18 µM
same,GI50,[1],1.78 µM
same,IC (TGI),[1],3.35 µM
same,CC50,[1],6.3 µM
same,Growth % of the Most Sensitive Cell Lines,"[1]; NCI-H460, 1 dose 10 µM",−83.30%
same,GI50,MDA-MB-435 (Melanoma),1.59 µM
same,IC (TGI),MDA-MB-435 (Melanoma),3.21 µM
same,CC50,MDA-MB-435 (Melanoma),6.49 µM
same,GI50,UACC-257 (Melanoma),1.95 µM
same,IC (TGI),UACC-257 (Melanoma),3.7 µM
same,CC50,UACC-257 (Melanoma),7.01 µM
same,GI50,SK-MEL-5 (Melanoma),1.7 µM
same,IC (TGI),SK-MEL-5 (Melanoma),3.09 µM
same,CC50,SK-MEL-5 (Melanoma),5.62 µM
same,GI50,HCC-2998 (Colon cancer),1.75 µM
same,IC (TGI),HCC-2998 (Colon cancer),3.46 µM
same,CC50,HCC-2998 (Colon cancer),6.85 µM
same,EC50,[2],1.69 ± 0.4 µM
same,EC50,[3],2.4 ± 0.2 µM
same,EC50,[4],2.63 ± 0.1 µM
same,EC50,MCF-7 (breast carcinoma),2.3 ± 0.2 µM
same,EC50,[5],1.71 ± 0.3 µM
same,GI50,SF-539 (CNS cancer),1.69 µM
same,IC (TGI),SF-539 (CNS cancer),3.16 µM
same,CC50,SF-539 (CNS cancer),5.9 µM
same,IC (TGI),Melanoma subpanel,3.32 µM
same,GI50,Melanoma subpanel,1.74 µM
same,CC50,Melanoma subpanel,6.36 µM
same,IC (TGI),NSC lung cancer subpanel,3.4 µM
same,GI50,NSC lung cancer subpanel,1.74 µM
same,CC50,NSC lung cancer subpanel,6.37 µM
same,GI50,[6],1.71 µM
same,IC (TGI),[6],3.32 µM
same,CC50,[6],6.43 µM
same,GI50,SF-268 (CNS cancer),1.79 µM
same,IC (TGI),SF-268 (CNS cancer),3.5 µM
same,CC50,SF-268 (CNS cancer),6.84 µM
same,GI50,[7],1.7 µM
same,IC (TGI),[7],3.44 µM
same,CC50,[7],6.98 µM
same,GI50,BT-549 (Breast cancer); BT-549,1.55 µM
same,IC (TGI),BT-549 (Breast cancer),2.96 µM
same,IC (TGI),OVCAR-4 (Ovarian cancer),3.79 µM
same,GI50,OVCAR-4 (Ovarian cancer); OVCAR-4,1.72 µM
same,GI50,OVCAR-8 (Ovarian cancer),1.96 µM
same,IC (TGI),OVCAR-8 (Ovarian cancer),3.61 µM
same,CC50,OVCAR-8 (Ovarian cancer),6.67 µM
same,GI50,786-0 (Renal cancer),1.6 µM
same,IC (TGI),786-0 (Renal cancer),3.06 µM
same,CC50,786-0 (Renal cancer),5.85 µM
same,IC (TGI),Breast cancer subpanel,3.69 µM
same,GI50,Breast cancer subpanel,1.74 µM
same,CC50,Breast cancer subpanel,12.6 µM
same,GI50,ACHN (Renal cancer),1.69 µM
same,IC (TGI),ACHN (Renal cancer),3.06 µM
same,CC50,ACHN (Renal cancer),5.54 µM
same,GI50,[8],1.65 µM
same,IC (TGI),[8],3.26 µM
same,CC50,[8],6.47 µM
"CC1(C)NCCC[C@]2(C)[C@H]3C=CC4=C5C[C@@](C)(CO)CC[C@]5(C)CC[C@@]4(C)[C@]3(C)CC[C@@H]12 [Compound 6, azepano-glycyrrhetol-diene]",GI50,RPMI-8226 (Leukemia),3.91 µM
same,IC (TGI),RPMI-8226 (Leukemia),14.9 µM
same,CC50,RPMI-8226 (Leukemia),52.9 µM
same,TGI,SR (Leukemia),7.17 µM
same,GI50,SR (Leukemia); Homo sapiens,2.42 µM
same,CC50,"SR (Leukemia); Homo sapiens, read-out: LC50 (the source's name)",> 100 µM
same,GI50,[1],4.17 µM
same,IC (TGI),[1],15.2 µM
same,CC50,[1],46.2 µM
same,GI50,MDA-MB-435 (Melanoma),3.76 µM
same,IC (TGI),MDA-MB-435 (Melanoma),14 µM
same,CC50,MDA-MB-435 (Melanoma),43 µM
same,Growth % of the Most Sensitive Cell Lines,"MDA-MB-435 (Melanoma); MDA-MB-435, 1 dose 10 µM",−95.56%
same,GI50,UACC-257 (Melanoma),5.24 µM
same,IC (TGI),UACC-257 (Melanoma),17 µM
same,CC50,UACC-257 (Melanoma),43.8 µM
same,GI50,SK-MEL-5 (Melanoma),2.14 µM
same,IC (TGI),SK-MEL-5 (Melanoma),4.94 µM
same,CC50,SK-MEL-5 (Melanoma),14 µM
same,GI50,HCC-2998 (Colon cancer),10.1 µM
same,IC (TGI),HCC-2998 (Colon cancer),23 µM
same,CC50,HCC-2998 (Colon cancer),52.3 µM
same,EC50,[2],4.44 ± 0.6 µM
same,EC50,[3],6.65 ± 0.3 µM
same,EC50,[4],3.93 ± 0.5 µM
same,EC50,MCF-7 (breast carcinoma),7.1 ± 0.5 µM
same,EC50,[5],4.84 ± 0.5 µM
same,GI50,SF-539 (CNS cancer),2.69 µM
same,IC (TGI),SF-539 (CNS cancer),9.26 µM
same,CC50,SF-539 (CNS cancer),33 µM
same,IC (TGI),Melanoma subpanel,11.9 µM
same,GI50,Melanoma subpanel,3.61 µM
same,CC50,Melanoma subpanel,36 µM
same,IC (TGI),NSC lung cancer subpanel,11.2 µM
same,GI50,NSC lung cancer subpanel,3.17 µM
same,CC50,NSC lung cancer subpanel,39.1 µM
same,GI50,[6],2.38 µM
same,IC (TGI),[6],7.31 µM
same,CC50,[6],31.7 µM
same,GI50,SF-268 (CNS cancer),3.27 µM
same,IC (TGI),SF-268 (CNS cancer),11.6 µM
same,CC50,SF-268 (CNS cancer),49.6 µM
same,GI50,[7],10.4 µM
same,IC (TGI),[7],24 µM
same,CC50,[7],55.1 µM
same,GI50,BT-549 (Breast cancer); BT-549,3.46 µM
same,IC (TGI),BT-549 (Breast cancer),12.7 µM
same,CC50,"BT-549 (Breast cancer); BT-549, read-out: LC50 (the source's name)",39 µM
same,IC (TGI),OVCAR-4 (Ovarian cancer),20.8 µM
same,GI50,OVCAR-4 (Ovarian cancer); OVCAR-4,5.63 µM
same,CC50,"OVCAR-4 (Ovarian cancer); OVCAR-4, read-out: LC50 (the source's name)",63.1 µM
same,GI50,OVCAR-8 (Ovarian cancer),2.55 µM
same,IC (TGI),OVCAR-8 (Ovarian cancer),6.66 µM
same,CC50,OVCAR-8 (Ovarian cancer),30.8 µM
same,GI50,786-0 (Renal cancer),2.66 µM
same,IC (TGI),786-0 (Renal cancer),8.59 µM
same,CC50,786-0 (Renal cancer),40.9 µM
same,IC (TGI),Breast cancer subpanel,19.1 µM
same,GI50,Breast cancer subpanel,6.68 µM
same,CC50,Breast cancer subpanel,55.1 µM
same,Growth % of the Most Sensitive Cell Lines,ACHN (Renal cancer); 1 dose 10 µM,−95.35%
same,GI50,ACHN (Renal cancer),2.93 µM
same,IC (TGI),ACHN (Renal cancer),9.56 µM
same,CC50,ACHN (Renal cancer),33 µM
same,GI50,[8],3.15 µM
same,IC (TGI),[8],12.5 µM
same,CC50,[8],40 µM
